Experimental data: patent US20250346593A1, “IMIDAZO(1,2-1)PYRIDINE DERIVATIVES AS RIPK2 INHIBITORS” (Interline Therapeutics, Inc., priority 2022, published 2025)
Read-outs that look alike come from different tables or passages of the source.

What was measured:
[1] = target: GST-RIPK2 fusion protein (human RIPK2 amino acids 1-310) (Homo sapiens (Human), UniProt O43353); assay: RIPK2 binding competition assay (TR-FRET, Tracer 199)
[2] = test system: NF-κB pathway (SEAP) in THP1-Dual cells; assay: THP-1 Dual cell SEAP assay (L18-MDP stimulated); type: cell-based; conditions: Homo sapiens, THP1-Dual, read-out: NFkB THP1 IC50
[3] = read-out: RIPK2 IC50, RIPK2 binding competition assay

Sequence of GST-RIPK2 fusion protein (human RIPK2 amino acids 1-310) (O43353 1-310): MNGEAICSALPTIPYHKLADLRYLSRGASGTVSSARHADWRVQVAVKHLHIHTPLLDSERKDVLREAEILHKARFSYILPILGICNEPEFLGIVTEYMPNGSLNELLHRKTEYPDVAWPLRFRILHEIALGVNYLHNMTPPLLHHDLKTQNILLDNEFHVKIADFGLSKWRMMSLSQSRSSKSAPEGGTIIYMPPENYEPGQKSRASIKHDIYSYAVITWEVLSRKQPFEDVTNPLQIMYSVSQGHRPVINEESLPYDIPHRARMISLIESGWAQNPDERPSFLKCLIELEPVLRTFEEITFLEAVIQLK

| SMILES | IC50 [1] [µM] | IC50 [2] [µM] | IC50 [1, 3] [µM] |
| --- | --- | --- | --- |
| COc1cc2ncc(-c3cc(F)nc(NC[C@H]4CCNC(=O)C4)c3)n2cc1S(=O)(=O)C(C)(C)C (single isomer, unassigned) [Example 239, (4R or S)-4-[({6-fluoro-4-[7-methoxy-6-(2-methylpropane-2-sulfonyl)imidazo[1,2-a]pyridin-3-yl]pyridin-2-yl}amino)methyl]pi peridin-2-one] | < 0.001 | < 0.05 |  |
| COc1cc2ncc(-c3cc(F)nc(NCC[C@H]4CNC(=O)C4)c3)n2cc1S(=O)(=O)C(C)(C)C (single isomer, unassigned) [Example 240, (4R or S)-4-[2-({6-fluoro-4-[7-methoxy-6-(2-methylpropane-2-sulfonyl)imidazo[1,2-a]pyridin-3-yl]pyridin-2-yl}amino)ethyl] pyrrolidin-2-one] | < 0.001 | < 0.05 |  |
| COc1cc2ncc(-c3cc(F)nc(NCC[C@@H]4CNC(=O)C4)c3)n2cc1S(=O)(=O)C(C)(C)C (single isomer, unassigned) [Example 241, (4R or S)-4-[2-({6-fluoro-4-[7-methoxy-6-(2-methylpropane-2-sulfonyl)imidazo[1,2-a]pyridin-3-yl]pyridin-2-yl}amino)ethyl] pyrrolidin-2-one] | < 0.001 | < 0.05 |  |
| COc1cc2ncc(-c3cc(F)nc(N[C@@H]4CCCC[C@H]4O)c3)n2cc1S(=O)(=O)C(C)(C)C (single isomer, unassigned) [Example 244, trans-(15,2S or 1R,2R)-2-({6-fluoro-4-[7-methoxy-6-(2-methylpropane-2-sulfonyl)imidazo[1,2-a]pyridin-3-yl]pyridin-2-yl}amino)cyclohexan-1-ol] | 0.0025 to 0.02 | 0.25 to 1 |  |
| COc1cc2ncc(-c3cc(F)nc(N[C@H]4CCCC[C@@H]4O)c3)n2cc1S(=O)(=O)C(C)(C)C (single isomer, unassigned) [Example 245, trans-(15,2S or 1R,2R)-2-({6-fluoro-4-[7-methoxy-6-(2-methylpropane-2-sulfonyl)imidazo[1,2-a]pyridin-3-yl]pyridin-2-yl}amino)cyclohexan-1-ol] | 0.0025 to 0.02 | 0.25 to 1 |  |
| CC(C)(C)S(=O)(=O)c1ccc2ncc(-c3cc(F)nc(F)c3)n2c1 [Example 1, 6-(tert-butylsulfonyl)-3-(2,6-difluoropyridin-4-yl)imidazo[1,2-a]pyridine] |  | > 1 | > 0.02 |
| COc1cc2ncc(-c3cc(N)c(OC)c(F)c3)n2cc1S(=O)(=O)C(C)(C)C [Example 2, 5-(6-(tert-butylsulfonyl)-7-methoxyimidazo[1,2-a]pyridin-3-yl)-3-fluoro-2-methoxyaniline] | 0.0025 to 0.02 | > 1 |  |
| COc1cc2ncc(-c3cc(F)c(C#N)c(F)c3)n2cc1S(=O)(=O)C(C)(C)C [Example 3, 4-(6-(tert-butylsulfonyl)-7-methoxyimidazo[1,2-a]pyridin-3-yl)-2,6-difluorobenzonitrile] |  | > 1 | > 0.02 |
| COc1cc2ncc(-c3cn[nH]c3)n2cc1S(=O)(=O)C(C)(C)C [Example 4, 6-(tert-butylsulfonyl)-7-methoxy-3-(1H-pyrazol-4-yl)imidazo[1,2-a]pyridine] | 0.0025 to 0.02 | 0.25 to 1 |  |
| COc1cc2ncc(-c3cc(N)nc(C(F)(F)F)c3)n2cc1S(=O)(=O)C(C)(C)C [Example 6, 4-(6-(tert-butylsulfonyl)-7-methoxyimidazo[1,2-a]pyridin-3-yl)-6-(trifluoromethyl) pyridin-2-amine] | 0.0025 to 0.02 | > 1 |  |
| COc1cc2ncc(-c3cc(N)c(=O)n(C)c3)n2cc1S(=O)(=O)C(C)(C)C [Example 7, 3-amino-5-(6-(tert-butylsulfonyl)-7-methoxyimidazo[1,2-a]pyridin-3-yl)-1-methylpyridin-2(1H)-one] | 0.0025 to 0.02 | 0.25 to 1 |  |
| COc1cc2ncc(-c3cc(Cl)nc(Cl)c3)n2cc1S(=O)(=O)C(C)(C)C [Example 8, 6-(tert-butylsulfonyl)-3-(2,6-dichloropyridin-4-yl)-7-methoxyimidazo[1,2-a]pyridine] |  | > 1 | > 0.02 |
| COc1cc2ncc(-c3ccc(F)nc3F)n2cc1S(=O)(=O)C(C)(C)C [Example 9, 6-(tert-butylsulfonyl)-3-(2,6-difluoropyridin-3-yl)-7-methoxyimidazo[1,2-a]pyridine] |  | > 1 | > 0.02 |
| CCCS(=O)(=O)Nc1cc(-c2cnc3cc(OC)c(S(=O)(=O)C(C)(C)C)cn23)cc(OC)c1OC [Example 10, N-(5-(6-(tert-butylsulfonyl)-7-methoxyimidazo[1,2-a]pyridin-3-yl)-2,3-dimethoxyphenyl) propane-1-sulfonamide] |  | < 0.05 | < 0.001 |
| COc1cc2ncc(-c3cc(F)cc([N+](=O)[O-])c3)n2cc1S(=O)(=O)C(C)(C)C [Example 13, 3-(3-fluoro-5-nitrophenyl)-7-methoxy-6-(2-methylpropane-2-sulfonyl)imidazo[1,2-a]pyridine] | > 0.02 | > 1 |  |
| COc1cc2ncc(-c3ccc(N)nc3F)n2cc1S(=O)(=O)C(C)(C)C [Example 14, 5-(6-(tert-butylsulfonyl)-7-methoxyimidazo[1,2-a]pyridin-3-yl)-6-fluoropyridin-2-amine] |  | > 1 | > 0.02 |
| COc1cc2ncc(-c3ccc(N)nc3)n2cc1S(=O)(=O)C(C)(C)C [Example 15, 5-(6-(tert-butylsulfonyl)-7-methoxyimidazo[1,2-a]pyridin-3-yl)pyridin-2-amine] |  | > 1 | > 0.02 |

| SMILES | IC50 [1] [µM] | IC50 [2] [µM] | IC50 [1, 3] [µM] |
| --- | --- | --- | --- |
| COc1cc2ncc(-c3ccc(N(C)C)nc3)n2cc1S(=O)(=O)C(C)(C)C [Example 16, 5-(6-(tert-butylsulfonyl)-7-methoxyimidazo[1,2-a]pyridin-3-yl)-N,N-dimethylpyridin-2-amine] |  | > 1 | > 0.02 |
| COc1cc2ncc(-c3cnc(N)c(OC)c3)n2cc1S(=O)(=O)C(C)(C)C [Example 17, 5-(6-(tert-butylsulfonyl)-7-methoxyimidazo[1,2-a]pyridin-3-yl)-3-methoxypyridin-2-amine] |  | > 1 | > 0.02 |
| COc1cc2ncc(-c3ccc(N)cc3)n2cc1S(=O)(=O)C(C)(C)C [Example 18, 4-(6-(tert-butylsulfonyl)-7-methoxyimidazo[1,2-a]pyridin-3-yl)aniline] |  | > 1 | > 0.02 |
| COc1cc2ncc(-c3cnc(N)c(C(F)(F)F)c3)n2cc1S(=O)(=O)C(C)(C)C [Example 19, 5-(6-(tert-butylsulfonyl)-7-methoxyimidazo[1,2-a]pyridin-3-yl)-3-(trifluoromethyl)pyridin-2-amine] |  | > 1 | > 0.02 |
| COc1cc2ncc(-c3ccc(N)c(F)c3)n2cc1S(=O)(=O)C(C)(C)C [Example 20, 4-(6-(tert-butylsulfonyl)-7-methoxyimidazo[1,2-a]pyridin-3-yl)-2-fluoroaniline] | 0.0025 to 0.02 | 0.25 to 1 |  |
| COc1cc2ncc(-c3cnc(N)cc3F)n2cc1S(=O)(=O)C(C)(C)C [Example 21, 5-(6-(tert-butylsulfonyl)-7-methoxyimidazo[1,2-a]pyridin-3-yl)-4-fluoropyridin-2-amine] |  | > 1 | > 0.02 |
| COc1cc2ncc(-c3cnc(N)c(Cl)c3)n2cc1S(=O)(=O)C(C)(C)C [Example 22, 5-(6-(tert-butylsulfonyl)-7-methoxyimidazo[1,2-a]pyridin-3-yl)-3-chloropyridin-2-amine] | 0.0025 to 0.02 | > 1 |  |
| COc1cc2ncc(-c3cnc(N)c(C#N)c3)n2cc1S(=O)(=O)C(C)(C)C [Example 23, 2-amino-5-(6-(tert-butylsulfonyl)-7-methoxyimidazo[1,2-a]pyridin-3-yl)nicotinonitrile] |  | > 1 | > 0.02 |
| COc1cc(N)cc(-c2cnn3ccc(S(=O)(=O)C(C)(C)C)cc23)c1 [Example 24, 3-(5-(tert-butylsulfonyl)pyrazolo [1,5-a]pyridin-3-yl)-5-methoxyaniline] |  | > 1 | > 0.02 |
| COc1ccc(-c2cnn3ccc(S(=O)(=O)C(C)(C)C)cc23)cc1N [Example 25, 5-(5-(tert-butylsulfonyl)pyrazolo [1,5-a]pyridin-3-yl)-2-methoxyaniline] |  | > 1 | > 0.02 |
| CC(C)(C)S(=O)(=O)c1ccn2ncc(-c3ccc(N)nc3)c2c1 [Example 26, 5-(5-(tert-butylsulfonyl)pyrazolo [1,5-a]pyridin-3-yl)pyridin-2-amine] |  | > 1 | > 0.02 |
| COc1cc2ncc(-c3ccc(F)c(N)c3F)n2cc1S(=O)(=O)C(C)(C)C [Example 27, 3-(6-(tert-butylsulfonyl)-7-methoxyimidazo[1,2-a]pyridin-3-yl)-2,6-difluoroaniline] | 0.0025 to 0.02 | > 1 |  |
| COc1cc2ncc(-c3ccc(OC)c(N)c3F)n2cc1S(=O)(=O)C(C)(C)C [Example 28, 3-(6-(tert-butylsulfonyl)-7-methoxyimidazo[1,2-a]pyridin-3-yl)-2-fluoro-6-methoxyaniline] | 0.0025 to 0.02 | > 1 |  |
| COc1cc2ncc(-c3cccc(N)c3F)n2cc1S(=O)(=O)C(C)(C)C [Example 29, 3-(6-(tert-butylsulfonyl)-7-methoxyimidazo[1,2-a]pyridin-3-yl)-2-fluoroaniline] | 0.0025 to 0.02 | > 1 |  |
| COc1cc2ncc(-c3cncc(N)c3)n2cc1S(=O)(=O)C(C)(C)C [Example 30, 5-(6-(tert-butylsulfonyl)-7-methoxyimidazo[1,2-a]pyridin-3-yl)pyridin-3-amine] |  | > 1 | > 0.02 |
| COc1cc2ncc(-c3cnc(N)c(N)c3)n2cc1S(=O)(=O)C(C)(C)C [Example 31, 5-(6-(tert-butylsulfonyl)-7-methoxyimidazo[1,2-a]pyridin-3-yl)pyridine-2,3-diamine] |  | > 1 | > 0.02 |
| COc1cc2ncc(-c3cc(N)ccc3F)n2cc1S(=O)(=O)C(C)(C)C [Example 32, 3-(6-(tert-butylsulfonyl)-7-methoxyimidazo[1,2-a]pyridin-3-yl)-4-fluoroaniline] |  | > 1 | > 0.02 |
